One data set concerns HCT116 cells. The data set is described as follows: Aurora inhibitors in combination with ABT-263, cell viability (CellTiter-GLO). In kind it is cell-based, human. The following applies: 1 μM ABT-263, 72 hours; MLN8054 at Aurora A-selective concentrations (<5 μM). Here is the method:
24 hours post-transfection, cells were treated with ABT-263 in dose response, and cell viability was determined 72 hours after the addition of ABT-263. […] MLN8054 (FIG. 9C) or AZD1152 (FIG. 9D) were tested in combination with DMSO or 1 μM ABT-263 in HCT116 cells. Cell viability was determined 72 hours after treatment. […] EJ1 (FIG. 9F) or HCT116 (FIG. 9G) cells were transfected with a luciferase siRNA or the same set of siRNAs against Bcl-2, Bcl-XL, or Mcl-1 siRNAs as in FIG. 9E. 24 hours post-transfection, cells were treated with different amounts of AZD1152. Cell viability was determined 72 hours after exposure to AZD1152. […] Cell viability was determined 72 hours post-transfection. In all figures, cell viability was expressed as the percentage of untransfected, DMSO-treated control cells. The red viability curve represents a synergistic combination.
(§1) Generally, cells were seeded at >90% viability (as determined by trypan blue exclusion) into 96-well plates overnight, treated with compounds or siRNAs for indicated duration, and the overall cell viability was determined by measuring luminescence.
In general terms: Cellular ATP, detected with luciferase, serves as a proxy for viable cell number.

Another data set concerns B-cell lymphoma. As to the kind of experiment: Oral efficacy of EXAMPLE 1 in combination therapy, antitumorigenesis on B-cell lymphoma. Type of data set: in vivo. The following applies: without EXAMPLE 1.
The subject of another data set is mantle cell lymphoma. The data set is described as follows: Oral efficacy of EXAMPLE 1 in combination therapy, antitumorigenesis on mantle cell lymphoma. Type of data set: in vivo. To be noted: without EXAMPLE 1.
Data set [1] has as its system tumor cell lines (D54MG, NCI-H460, A549, PC3, EJ1, HCT116, DLD1, SW620, 786-O). As to the kind of experiment: Combination screen of VX-680, cell viability with Bliss additivism analysis. Type of data set: cell-based, human. The following applies: VX-680 with ABT-263 in dose-response; viability 3 days after exposure. Here is the method: Cell viability was determined 3 days after exposure to the combination regimens. Synergy or antagonism of drug combinations was determined using the Bliss additivism model of drug-drug interactions (See, Berenbaum, M. C., Cancer Res 35, 269-335 (1981)). The value in excess of Bliss additivism for each dose was determined for all combinations and defined as follows: >15=synergistic, 0-15=no interaction, <−15=antagonistic. These values are expressed in a heatmap using SPOTFIRE® (TIBCO®) data analysis software where synergy is indicated in red, no interaction in gray, and antagonism in blue. […] These values are not applicable for Bliss analysis and were excluded from the heatmap. Compounds tested in combination are shown at the right. The targets/mechanisms of action of each of these agents and the corresponding dose responses for the combination screen is summarized in Table A in EXAMPLE 40.
as §1
Combined response scores greater than 15 were considered synergistic. […]

For the next data set, the target named is Bcl-XL protein (Homo sapiens, UniProt Q07817). The data set is described as follows: Bcl-XL binding affinity, fluorescence polarization with fluorescein-labeled BAD peptide. To be noted: Wang's equation, read-out: Target Binding Affinity Ki (Bcl-XL).
A further data set addresses T1, Bcl-2 protein (Homo sapiens, UniProt P10415, DELINS35-91DVEENRTEAPEGTESE, form not given).
T1 construct: fused on or other part: A short piece of the Bcl-xL (Q07817) loop replaces Bcl-2 loop residues 35-91; The C-terminal membrane anchor is absent
The data set is described as follows: Bcl-2 binding affinity, fluorescence polarization with fluorescein-labeled BAX peptide. The following applies: Wang's equation, read-out: Target Binding Affinity Ki (Bcl-2). For orientation: Fluorescence polarisation rises when a labelled molecule tumbles more slowly, as on binding a larger partner.

Data set [2] is described as follows: Pharmacokinetic evaluation in rat. In kind it is in vivo. To be noted: male, Sprague-Dawley, plasma; for AUC(0-inf): single 5 mg/kg oral dose, Table 1, read-out: Pharmacokinetic area under the plasma concentration Curve (rat) AUC0-∞. In a few lines: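 Male Sprague-Dawley rats (n=3/group) received a single 2 mg/kg IV (jugular slow bolus) or 5 mg/kg oral gavage dose in 10% DMSO/PEG-400; tail-vein plasma sampled to 24 h. Acetonitrile-precipitated plasma quantified by LC-MS/MS (LOQ 0.01 μg/mL); AUC0-∞ by linear trapezoidal rule plus Ct/β extrapolation.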

Data set [3] relates to NCI-H146 human small cell lung carcinoma cells. The data set is described as follows: Cellular efficacy in human tumor cell line (MTS viability assay). Type of data set: cell-based. The following applies: NCI-H146, 10% human serum, 48 hours. An outline of the steps:
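Cells plated at 50,000/well in medium with 10% human serum in place of FBS. Treated with 2-fold serial dilutions from 10 μM to 0.020 μM, in duplicate, at least 3 separate runs. Viable cells measured by MTS after 48 h of compound exposure.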
A general note: Formazan colour is commonly taken as a measure of viable cells.

Setting [4] is: Table 1, read-out: NCI-H146 Cellular Efficacy EC50.

Read-outs that look alike come from different tables or passages of the source.

As usually defined, the Ki is a dissociation constant, usually derived from enzyme kinetics or from competition with a known ligand. For orientation: EC50 means the midpoint of the concentration-response curve.

T1 sequence (P10415 with tags, fused parts or gaps with the stated changes): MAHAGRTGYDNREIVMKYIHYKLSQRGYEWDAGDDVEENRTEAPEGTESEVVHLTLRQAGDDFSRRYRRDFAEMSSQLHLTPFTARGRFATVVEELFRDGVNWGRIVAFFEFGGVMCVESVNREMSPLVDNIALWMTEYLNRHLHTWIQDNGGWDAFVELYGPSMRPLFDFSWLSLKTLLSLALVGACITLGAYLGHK
Chain of Bcl-XL protein (Q07817 with tags, fused parts or gaps DEL45-84): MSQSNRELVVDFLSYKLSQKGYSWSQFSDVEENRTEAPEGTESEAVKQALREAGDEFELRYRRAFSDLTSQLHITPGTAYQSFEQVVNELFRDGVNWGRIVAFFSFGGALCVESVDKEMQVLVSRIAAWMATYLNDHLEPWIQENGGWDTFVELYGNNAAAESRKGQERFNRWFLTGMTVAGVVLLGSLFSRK
Experimental for Bcl-2 protein: Binding affinity of compounds having formula (II) to Bcl-2 protein is indicia of their inhibition of the activity of this protein.
Ki values shown in the tables below were determined using Wang's equation (Wang Z X., An Exact Mathematical Expression For Describing Competitive Binding Of Two Different Ligands To A Protein Molecule. FEBS Lett. 1995; 360:111-4)).

Turning to `O=C(O)c1ccc(Nc2ncc3c(n2)-c2ccc(Cl)cc2C(c2c(F)cccc2F)=NC3)cc1` [MLN8054], the “synergy in combination with ABT-263 (cell viability)” value in the data set on HCT116 cells is “no synergy”.

On to “rituximab: antibody, RITUXAN® (rituximab) [reference compound]”, for which the “tumor regressions, agent alone” value in the data set with B-cell lymphoma is recorded as “no tumor regressions”.

As to `CC(C)C[C@H](NC(=O)[C@H](Cc1ccccc1)NC(=O)c1cnccn1)B(O)O` [bortexomib, reference compound], the “tumor regressions, agent alone” value in the data set with mantle cell lymphoma is on record as “no tumor regressions”.

Regarding `Cc1cc(Nc2cc(N3CCN(C)CC3)nc(Sc3ccc(NC(=O)C4CC4)cc3)n2)[nH]n1` [VX-680, cyclopropane carboxylic acid of {4-[4-(4-methyl-piperazin-1-yl)-6-(5-methyl-2H-pyrazol-3-ylamino)-pyrimidin-2-ylsulphanyl]-phenyl}-amide], in data set [1], the “Bliss analysis of cell viability, combination with ABT-263” value is recorded as “synergistic (>15=synergistic)”.

As to `CO[C@H]1C[C@@H]2CC[C@@H](C)[C@@](O)(O2)C(=O)C(=O)N2CCCC[C@H]2C(=O)O[C@H]([C@H](C)C[C@@H]2CC[C@@H](O)[C@H](OC)C2)CC(=O)[C@H](C)/C=C(\C)[C@@H](O)[C@@H](OC)C(=O)[C@H](C)C[C@H](C)/C=C/C=C/C=C/1C` [rapamycin, reference compound], in the data set on B-cell lymphoma, the “tumor regressions, agent alone” value was found to be 10%.

As for `O=C(NS(=O)(=O)c1ccc(N[C@H](CCN2CCOCC2)CSc2ccccc2)c(S(=O)(=O)C(F)(F)F)c1)c1ccc(N2CCN(CC3=C(c4ccc(Cl)cc4)CCCC3)CC2)cc1` [Example 7, N-(4-(4-((2-(4-chlorophenyl)cyclohex-1-en-1-yl)methyl)piperazin-1-yl)benzoyl)-4-(((1R)-3-(morpholin-4-yl)-1-((phenylsulfanyl)methyl)propyl)amino)-3-((trifluoromethyl)sulfonyl)benzenesulfonamide], the Ki at Bcl-XL protein and on Bcl-2 protein was not above 1 nM throughout. In addition, in data set [2] (5 mg/kg, oral, Table 3, read-out: Pharmacokinetic area under the plasma concentration Curve (rat) AUC), the AUC was found to be 3.87 µM·h. For the same compound, the Cmax in data set [2] (5 mg/kg, oral, Table 3, read-out: Pharmacokinetic peak plasma concentration (rat) Cmax) was determined as 518 nM. For the same compound, the AUC(0-inf) in data set [2] came out at 3.87 µM·h. The EC50 in data set [3] (setting [4]) stood at 58.9 nM; in data set [3] (Table 3, read-out: NCI-H146 Cellular Efficacy H146 EC50), 59 nM.

With `O=C(NS(=O)(=O)c1ccc(N[C@H](CCN2CCCC2)CSc2ccccc2)c(S(=O)(=O)C(F)(F)Cl)c1)c1ccc(N2CCN(CC3=C(c4ccc(Cl)cc4)CCCCC3)CC2)cc1` [Example 32, 3-((chloro(difluoro)methyl)sulfonyl)-N-(4-(4-((2-(4-chlorophenyl)cyclohept-1-en-1-yl)methyl)piperazin-1-yl)benzoyl)-4-(((1R)-1-((phenylsulfanyl)methyl)-3-(pyrrolidin-1-yl)propyl)amino)benzenesulfonamide], the Ki at Bcl-XL protein and on Bcl-2 protein was not above 1 nM in each case. Also, the AUC(0-inf) in data set [2] turned out to be 1.38 µM·h. In data set [3] (setting [4]), the EC50 worked out at 18.7 nM.

On to `O=C(NS(=O)(=O)c1ccc(N[C@H](CCN2CCCC2)CSc2ccccc2)c(S(=O)(=O)C(F)(F)F)c1)c1ccc(N2CCN(CC3=C(c4ccc(Cl)cc4)CCCCC3)CC2)cc1` [Example 29, N-(4-(4-((2-(4-chlorophenyl)cyclohept-1-en-1-yl)methyl)piperazin-1-yl)benzoyl)-4-(((1R)-1-((phenylsulfanyl)methyl)-3-(pyrrolidin-1-yl)propyl)amino)-3-((trifluoromethyl)sulfonyl)benzenesulfonamide], for which the Ki on Bcl-XL protein and on Bcl-2 protein was not above 1 nM each time. Moreover, the AUC(0-inf) in data set [2] came to 1.74 µM·h. Further, the EC50 in data set [3] (setting [4]) was 29.8 nM.

For the compound `O=C(NS(=O)(=O)c1ccc(N[C@H](CCN2CCOCC2)CSc2ccccc2)c(S(=O)(=O)C(F)(F)F)c1)c1ccc(N2CCN(CC3=C(c4ccc(Cl)cc4)CCOC3)CC2)cc1` [Example 21, N-(4-(4-((4-(4-chlorophenyl)-5,6-dihydro-2H-pyran-3-yl)methyl)piperazin-1-yl)benzoyl)-4-(((1R)-3-(morpholin-4-yl)-1-((phenylsulfanyl)methyl)propyl)amino)-3-((trifluoromethyl)sulfonyl)benzenesulfonamide], the inhibitory constant (Ki) at Bcl-XL protein and on Bcl-2 protein was not above 1 nM each time. Besides, in data set [2], the AUC(0-inf) was found to be 1.81 µM·h. The EC50 in data set [3] (setting [4]) is 64.3 nM.

The values above are taken from patent publication US8624027B2, “Combination therapy for treating cancer and diagnostic assays for use therein” (AbbVie Inc., priority 2005, dated 2014).
